Data published in US20060235222A1, “Indole-derivative modulators of steroid hormone nuclear receptors” (ELI LILLY AND COMPANY, priority 2003, published 2006).

Experiments:
[1] = target: T1, glucocorticoid receptor (Homo sapiens, UniProt P04150); assay: Glucocorticoid Receptor Binding Assay (Method 1), [3H]-dexamethasone competition, A549 cell extract; settings: 1.86 nM [3H]-dexamethasone, read-out: GR Ki (nM) Method 1
T1 construct: containing 50-200 ug of A549 cell extract and 1.86 nM; host or cells: A549 human lung epithelial cells
T1 sequence (P04150 1-777): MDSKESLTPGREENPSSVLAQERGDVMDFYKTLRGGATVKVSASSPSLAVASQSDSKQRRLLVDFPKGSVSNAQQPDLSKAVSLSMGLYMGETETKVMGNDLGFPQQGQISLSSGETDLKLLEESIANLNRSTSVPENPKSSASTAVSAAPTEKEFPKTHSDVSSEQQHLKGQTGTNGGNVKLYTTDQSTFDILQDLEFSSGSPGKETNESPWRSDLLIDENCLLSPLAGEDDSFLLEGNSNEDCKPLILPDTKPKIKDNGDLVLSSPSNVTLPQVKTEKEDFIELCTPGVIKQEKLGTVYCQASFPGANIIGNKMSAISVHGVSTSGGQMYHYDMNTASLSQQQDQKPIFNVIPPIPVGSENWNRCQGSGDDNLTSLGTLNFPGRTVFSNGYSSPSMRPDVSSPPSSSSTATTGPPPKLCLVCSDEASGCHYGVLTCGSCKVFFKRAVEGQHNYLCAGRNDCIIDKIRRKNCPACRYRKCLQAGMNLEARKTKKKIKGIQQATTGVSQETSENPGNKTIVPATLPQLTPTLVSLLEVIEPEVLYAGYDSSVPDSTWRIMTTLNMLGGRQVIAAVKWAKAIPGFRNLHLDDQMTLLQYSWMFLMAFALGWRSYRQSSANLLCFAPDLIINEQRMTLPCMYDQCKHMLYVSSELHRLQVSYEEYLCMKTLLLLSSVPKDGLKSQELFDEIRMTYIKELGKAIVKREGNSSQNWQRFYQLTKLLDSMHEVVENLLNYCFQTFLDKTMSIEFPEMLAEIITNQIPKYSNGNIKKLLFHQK
Summary of the method: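 Receptor source: sonicated extract of human A549 lung epithelial cells in glycerol/Tris-HCl pH 7.2 buffer with sodium molybdate. [3H]-dexamethasone competition run 16 h at 4 °C; unbound radioligand stripped with dextran-coated charcoal (8 min, RT) and receptor-bound radioactivity quantified by scintillation counting.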

[2] = target: T2, human MR (Homo sapiens, UniProt P08235); assay: Mineralocorticoid Receptor Binding Assay (Method 1), [3H]-aldosterone competition; settings: 0.5 nM [3H]-aldosterone, human MR expressed in Sf9 cells
T2 construct: The full length human MR gene is cloned from a human kidney or human brain cDNA library; inferred from own knowledge of the pAcHLT vector (N); made in house; host or cells: Sf9 insect cells (baculovirus)
T2 sequence (P08235 1-984): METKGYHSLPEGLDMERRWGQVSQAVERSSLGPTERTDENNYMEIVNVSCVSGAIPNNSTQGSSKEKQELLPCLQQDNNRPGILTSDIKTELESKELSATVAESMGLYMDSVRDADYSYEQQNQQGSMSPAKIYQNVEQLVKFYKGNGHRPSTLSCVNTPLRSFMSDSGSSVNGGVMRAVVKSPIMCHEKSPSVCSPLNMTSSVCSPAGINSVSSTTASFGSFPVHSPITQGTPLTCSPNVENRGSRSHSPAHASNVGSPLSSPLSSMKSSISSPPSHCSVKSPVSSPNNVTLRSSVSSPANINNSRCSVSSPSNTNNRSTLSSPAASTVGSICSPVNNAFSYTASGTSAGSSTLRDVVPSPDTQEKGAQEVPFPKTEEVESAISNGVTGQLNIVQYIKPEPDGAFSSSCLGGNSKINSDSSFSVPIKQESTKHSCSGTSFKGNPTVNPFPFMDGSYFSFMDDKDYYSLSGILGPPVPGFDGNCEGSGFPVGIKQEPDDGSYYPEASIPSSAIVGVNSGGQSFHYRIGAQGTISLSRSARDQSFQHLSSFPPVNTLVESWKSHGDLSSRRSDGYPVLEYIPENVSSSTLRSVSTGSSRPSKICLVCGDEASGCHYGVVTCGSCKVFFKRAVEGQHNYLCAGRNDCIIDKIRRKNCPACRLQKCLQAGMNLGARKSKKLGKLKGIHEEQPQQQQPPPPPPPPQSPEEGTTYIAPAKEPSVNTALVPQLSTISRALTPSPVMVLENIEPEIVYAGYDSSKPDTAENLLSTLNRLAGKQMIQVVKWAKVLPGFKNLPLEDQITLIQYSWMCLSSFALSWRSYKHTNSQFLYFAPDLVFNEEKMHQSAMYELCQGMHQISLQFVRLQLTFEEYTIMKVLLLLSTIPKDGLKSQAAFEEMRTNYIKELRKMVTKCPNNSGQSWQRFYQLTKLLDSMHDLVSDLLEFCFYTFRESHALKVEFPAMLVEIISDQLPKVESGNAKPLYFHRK
Summary of the method: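 Full-length human MR expressed in Sf9 cells via baculovirus; lysate supernatant (about 20-25 μg protein) incubated with 0.5 nM [3H]-aldosterone and test compound for about 16 h at 4° C. Buffer was Tris/molybdate/phosphate/pyrophosphate with 10% glycerol, pH 7.5; filter-bound complex counted by scintillation.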

SMILES | Ki [1] | Ki [2]
CCC(CC)(c1cc2cc(OC)ccc2o1)c1c[nH]c2c(NS(C)(=O)=O)cccc12 [Example 29, N-{3-[1-Ethyl-1-(5-methoxy-benzofuran-2-yl)-propyl]-1H-indol-7-yl}-methanesulfonamide] | < 1000 nM | < 500 nM
CS(=O)(=O)Nc1cccc2c(C3(c4ccccc4)CCCCC3)c[nH]c12 [Example 16, N-[3-(1-Phenylcyclohexyl)-1H-indol-7-yl]-methanesulfonamide] | < 1000 nM | < 500 nM
Cc1cccc2c(C3(c4ccc(F)cc4)CCCCC3)c[nH]c12 [Example 32, 3-[1-(4-Fluoro-phenyl)-cyclohexyl]-7-methyl-1H-indole] | < 10000 nM | < 500 nM
CCc1cccc2c(C(C)(c3ccc(O)cc3)c3ccc(F)cc3)c[nH]c12 (centres unmarked) [Example 27, 4-[1-(7-Ethyl-1H-indole-3-yl)-1-(4-fluoro-phenyl)-ethyl]-phenol] | < 1000 nM | < 500 nM
CCC(CC)(c1ccc(OCc2ccccc2)cc1)c1c[nH]c2c(NS(C)(=O)=O)cccc12 [Example 17, N-{3-[1-(4-Benzyloxy-phenyl)-1-ethyl-propyl]-1H-indol-7-yl}-methanesulfonamide] | < 500 nM | < 500 nM
CCCC(C)(c1cccc(OC)c1)c1c[nH]c2c(NS(C)(=O)=O)cccc12 (centres unmarked) [Example 46, N-{3-[1-(3-Methoxy-phenyl)-1-methyl-butyl]-1H-indol-7-yl}-methanesulfonamide] | < 500 nM | < 500 nM
CCCCC(C)(c1ccc(OC)cc1)c1c[nH]c2c(C)cccc12 (centres unmarked) [Example 23, 3-[1-(4-Methoxy-phenyl)-1-methyl-pentyl]-7-methyl-1H-indole] | < 500 nM | < 500 nM
CC(C)(c1ccc2c(c1)CCO2)c1c[nH]c2c(NS(C)(=O)=O)cccc12 [Example 22, N-{3-[1-(2,3-Dihydro-benzofuran-5-yl)-1-methyl-ethyl]-1H-indol-7-yl}-methanesulfonamide] | < 500 nM | < 500 nM
CCC(CC)(c1ccc(O)cc1)c1c[nH]c2c(NS(C)(=O)=O)cccc12 [Example 18, N-{3-[1-Ethyl-1-(4-hydroxy-phenyl)-propyl]-1H-indol-7-yl}-methanesulfonamide] | < 500 nM | < 500 nM

More lines, now with the values ahead:

Ki [1] | Ki [2] | SMILES
< 500 nM | < 500 nM | CC(C)(c1ccccc1)c1c[nH]c2c(NS(C)(=O)=O)cccc12 [Example 78, N-[3-(1-Methyl-1-phenyl-ethyl)-1H-indol-7-yl]-methanesulfonamide]
< 500 nM | < 500 nM | CC(C)(c1csc2ccccc12)c1c[nH]c2c(NS(C)(=O)=O)cccc12 [Example 14, N-[3-(1-Benzo[b]thiophen-3-yl-1-methyl-ethyl)-1H-indol-7-yl]-methanesulfonamide]
< 500 nM | < 500 nM | CCC(CC)(c1ccc(Cl)cc1)c1c[nH]c2c(NS(C)(=O)=O)cccc12 [Example 56, N-{3-[1-(4-Chloro-phenyl)-1-ethyl-propyl]-1H-indol-7-yl}-methanesulfonamide]
< 500 nM | < 500 nM | CCC(CC)(c1ccc([S@+](C)[O-])cc1)c1c[nH]c2c(NS(C)(=O)=O)cccc12 (stereo in doubt) [Example 49, N-{3-[1-Ethyl-1-(4-methanesulfinyl-phenyl)-propyl]-1H-indol-7-yl}-methanesulfonamide]
< 500 nM | < 500 nM | CCCC(C)(c1ccccc1OC)c1c[nH]c2c(NS(C)(=O)=O)cccc12 (centres unmarked) [Example 44, N-{3-[1-(2-Methoxy-phenyl)-1-methyl-butyl]-1H-indol-7-yl}-methanesulfonamide]
< 500 nM | < 500 nM | CCC(CC)(c1ccc(F)cc1)c1c[nH]c2c([N+](=O)[O-])cccc12 [Example 75, 3-[1-Ethyl-1-(4-fluoro-phenyl)-propyl]-7-nitro-1H-indole]
< 500 nM | < 500 nM | CCC(CC)(c1ccc2c(c1)CCO2)c1c[nH]c2c(NS(C)(=O)=O)cccc12 [Example 3, N-{3-[1-(2,3-Dihydro-benzofuran-5-yl)-1-ethyl-propyl]-1H-indol-7-yl}-methanesulfonamide]
